Test results taken from publication PMC11990924, “Inhibition of Tyrosinase and Melanogenesis by Carboxylic Acids: Mechanistic Insights and Safety Evaluation” (Molecules, 2025).

Key:
B16-F10 cells = experiment: Proteomic analysis of B16-F10 cells (DIA mass spectrometry); assay type: cell-based, mouse
Method: B16-F10 cells were treated with various concentrations of carboxylic acids following the same culture protocol used for melanin inhibition assays. After treatment, the cells were collected and submitted to Shanghai Zhongke Xinming Biotechnology Co., Ltd. (Shanghai, China) for proteomics analysis. The collected cells were lysed with an appropriate volume of SDT lysis buffer (4% SDS, 100 mM Tris-HCl, pH 7.6) to extract proteins. DTT was added to reduce disulfide bonds, followed by incubation at room temperature for 1 h. Subsequently, iodoacetamide was added, and the mixture was reacted in the dark at room temperature for 30 min. The proteins were then digested with trypsin overnight. The resulting peptide fragments were desalted using a C18 cartridge. After freeze-drying, the peptides were resuspended in 40 μL of 0.1% formic acid solution, and the peptide concentration was determined by measuring the absorbance at 280 nm. An appropriate amount of internal reference for targeted proteomics (iRT) standard peptides was added to each sample for data-independent acquisition (DIA) mass spectrometry analysis. Chromatographic separation was performed using a nanoflow Evosep One system. The separated samples were analyzed by DIA mass spectrometry using a timsTOF Pro mass spectrometer (Bruker Daltonics, Bremen, Germany). Detection was conducted in positive-ion mode, with MS and MS/MS scanning ranges set from 100 to 1700 m/z. MS2 data acquisition was performed in DIA mode, with four TIMS scan windows, each accumulating for 100 ms. In PASEF mode, the collision energy varied linearly with ion mobility (1/K0), ranging from 20 to 59 eV for ions with 1/K0 values between 0.85 and 1.30 Vs/cm^2. The DIA data were processed using Spectronaut 19 software with the following parameter settings: retention time prediction type set to dynamic iRT, interference correction on MS2 level enabled, cross-run normalization enabled, maximum missed cleavage sites set to 2, fixed modification set to Carbamidomethyl (C), and variable modifications set to Oxidation (M) and Acetyl (Protein N-term). All results were filtered with a Q-value cutoff of 0.01, corresponding to a false discovery rate (FDR) of less than 1%. The target protein set was annotated using Blast2GO (version BLASTP 2.8.0+). The process included four steps: sequence alignment (Blast), GO mapping, GO annotation, and additional annotation augmentation using InterProScan. Using the KOBAS 3.0 software, KEGG pathway annotation was performed on the target protein set. Fisher’s exact test was employed to compare the distribution of GO categories in the target protein set and the overall protein set, thereby conducting enrichment analysis of the GO annotations in the target protein set. The proteomics dataset generated in this study has been made publicly available through the PRIDE ProteomeXchange Consortium with the dataset identifier PXD061919.

mushroom tyrosinase = mushroom tyrosinase (Agaricus bisporus, UniProt C7FF04); experiment: Inhibition of mushroom tyrosinase activity (L-DOPA, OD475); assay type: biochemical; settings: 6 mM; read-out: tyrosinase inhibition rate
Chain of mushroom tyrosinase (C7FF04 2-392): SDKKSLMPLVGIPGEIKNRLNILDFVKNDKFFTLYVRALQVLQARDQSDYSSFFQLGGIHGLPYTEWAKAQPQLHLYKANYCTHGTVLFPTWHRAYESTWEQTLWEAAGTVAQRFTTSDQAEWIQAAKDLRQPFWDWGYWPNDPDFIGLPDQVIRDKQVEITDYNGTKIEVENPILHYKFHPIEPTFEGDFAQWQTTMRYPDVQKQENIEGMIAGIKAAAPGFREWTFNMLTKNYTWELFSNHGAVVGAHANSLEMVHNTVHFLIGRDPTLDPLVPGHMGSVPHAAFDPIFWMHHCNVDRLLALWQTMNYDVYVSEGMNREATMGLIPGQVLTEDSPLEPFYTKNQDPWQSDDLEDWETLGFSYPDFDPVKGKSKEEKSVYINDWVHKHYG
Method: L-DOPA solution (5 mM) and tyrosinase (400 U/mL) (Sigma-Aldrich, St. Louis, MO, USA) were prepared in PBS buffer (pH 7.4) (Qingdao Hope Bio-Technology Co., Ltd., Qingdao, China). A reaction mixture was prepared by combining 240 μL of carboxylic acid at various concentrations, 360 μL of L-DOPA solution, and 120 μL of tyrosinase. […] Deionized water was used as the control.

- inhibition at 6000 µM (mushroom tyrosinase): > 80%
Structure (SMILES): O=C(O)C(O)Cc1ccccc1 (centres unmarked) [3-phenyllactic acid]
- ATP8 protein fold change (B16-F10 cells; 6 mM vs control, Table S1): 0.4618
- Aanat protein fold change (B16-F10 cells; 6 mM vs control, Table S1): 2.208
- Acta1 protein fold change (B16-F10 cells; 6 mM vs control, Table S1): 2.921
- Adgrg1 protein fold change (B16-F10 cells; 6 mM vs control, Table S1): 0.4728
- Agtrap protein fold change (B16-F10 cells; 6 mM vs control, Table S1): 0.4687
- Antxr2 protein fold change (B16-F10 cells; 6 mM vs control, Table S1): 0.4747
- Aplp2 protein fold change (B16-F10 cells; 6 mM vs control, Table S1): 0.2246
- Apob protein fold change (B16-F10 cells; 6 mM vs control, Table S1): 0.4962
- Apoh protein fold change (B16-F10 cells; 6 mM vs control, Table S1): 0.4857
- App protein fold change (B16-F10 cells; 6 mM vs control, Table S1): 0.3729
- Arl6ip1 protein fold change (B16-F10 cells; 6 mM vs control, Table S1): 0.4901
- Bace2 protein fold change (B16-F10 cells; 6 mM vs control, Table S1): 0.4069
- Bcl9 protein fold change (B16-F10 cells; 6 mM vs control, Table S1): 2.336
- Bltp1 protein fold change (B16-F10 cells; 6 mM vs control, Table S1): 2.099
- Bst2 protein fold change (B16-F10 cells; 6 mM vs control, Table S1): 0.3949
- CUB domain-containing protein (Q3TD85) fold change (B16-F10 cells; 6 mM vs control, Table S1): 0.4924
- Cav2 protein fold change (B16-F10 cells; 6 mM vs control, Table S1): 0.4909
- Cdc42se1 protein fold change (B16-F10 cells; 6 mM vs control, Table S1): 0.3683
- Cisd2 protein fold change (B16-F10 cells; 6 mM vs control, Table S1): 0.4369
- Cks2 protein fold change (B16-F10 cells; 6 mM vs control, Table S1): 0.4644
- Ctns protein fold change (B16-F10 cells; 6 mM vs control, Table S1): 0.3087
- Cxne protein fold change (B16-F10 cells; 6 mM vs control, Table S1): 0.3753
- Cyp51a1 protein fold change (B16-F10 cells; 6 mM vs control, Table S1): 0.3449
- Ddit3 protein fold change (B16-F10 cells; 6 mM vs control, Table S1): 2.105
- Dgcr2 protein fold change (B16-F10 cells; 6 mM vs control, Table S1): 0.4147
- Dnajc19 protein fold change (B16-F10 cells; 6 mM vs control, Table S1): 0.3587
- E2f5 protein fold change (B16-F10 cells; 6 mM vs control, Table S1): 2.473
- Eng protein fold change (B16-F10 cells; 6 mM vs control, Table S1): 0.3635
- Entpd7 protein fold change (B16-F10 cells; 6 mM vs control, Table S1): 0.3998
- Epb41l4b protein fold change (B16-F10 cells; 6 mM vs control, Table S1): 2.181
- Fam174b protein fold change (B16-F10 cells; 6 mM vs control, Table S1): 0.4339
- Fau protein fold change (B16-F10 cells; 6 mM vs control, Table S1): 4.21
- Fosl2 protein fold change (B16-F10 cells; 6 mM vs control, Table S1): 5.488
- Fv4 protein fold change (B16-F10 cells; 6 mM vs control, Table S1): 0.4177
- Ginm1 protein fold change (B16-F10 cells; 6 mM vs control, Table S1): 0.3741
- Glmp protein fold change (B16-F10 cells; 6 mM vs control, Table S1): 0.4495
- H1-0 protein fold change (B16-F10 cells; 6 mM vs control, Table S1): 2.057
- H3c14 protein fold change (B16-F10 cells; 6 mM vs control, Table S1): 3.134
- Hbbt1 protein fold change (B16-F10 cells; 6 mM vs control, Table S1): 0.388
- Hmgcs1 protein fold change (B16-F10 cells; 6 mM vs control, Table S1): 0.3916
- Hspa13 protein fold change (B16-F10 cells; 6 mM vs control, Table S1): 0.4084
- Ifi205 protein fold change (B16-F10 cells; 6 mM vs control, Table S1): 2.571
- Ifitm2 protein fold change (B16-F10 cells; 6 mM vs control, Table S1): 0.4697
- Il10rb protein fold change (B16-F10 cells; 6 mM vs control, Table S1): 0.3763
- Itih3 protein fold change (B16-F10 cells; 6 mM vs control, Table S1): 0.3529
- Itm2b protein fold change (B16-F10 cells; 6 mM vs control, Table S1): 0.2428
- Itm2c protein fold change (B16-F10 cells; 6 mM vs control, Table S1): 0.3416
- Kbtbd2 protein fold change (B16-F10 cells; 6 mM vs control, Table S1): 0.4177
- Kcnj13 protein fold change (B16-F10 cells; 6 mM vs control, Table S1): 0.3629
- Laptm4a protein fold change (B16-F10 cells; 6 mM vs control, Table S1): 0.2076
- Laptm4b protein fold change (B16-F10 cells; 6 mM vs control, Table S1): 0.3669
- Ldha protein fold change (B16-F10 cells; 6 mM vs control, Table S1): 2.104
- Ldlr protein fold change (B16-F10 cells; 6 mM vs control, Table S1): 0.4018
- Mast4 protein fold change (B16-F10 cells; 6 mM vs control, Table S1): 2.12
- Met protein fold change (B16-F10 cells; 6 mM vs control, Table S1): 0.4986
- Mfap3 protein fold change (B16-F10 cells; 6 mM vs control, Table S1): 0.4088
- Mlana protein fold change (B16-F10 cells; 6 mM vs control, Table S1): 0.2524
- Mtfr2 protein fold change (B16-F10 cells; 6 mM vs control, Table S1): 0.4374
- Myl6 protein fold change (B16-F10 cells; 6 mM vs control, Table S1): 0.4951
- Ndfip1 protein fold change (B16-F10 cells; 6 mM vs control, Table S1): 0.3294
- Nfatc2 protein fold change (B16-F10 cells; 6 mM vs control, Table S1): 0.2366
- Nrp1 protein fold change (B16-F10 cells; 6 mM vs control, Table S1): 0.4865
- Nrp2 protein fold change (B16-F10 cells; 6 mM vs control, Table S1): 0.3408
- Pacsin2 protein fold change (B16-F10 cells; 6 mM vs control, Table S1): 0.3403
- Phyhd1 protein fold change (B16-F10 cells; 6 mM vs control, Table S1): 2.286
- Pmel protein fold change (B16-F10 cells; 6 mM vs control, Table S1): 0.4916
- Psap protein fold change (B16-F10 cells; 6 mM vs control, Table S1): 0.4703
- Ptprs protein fold change (B16-F10 cells; 6 mM vs control, Table S1): 0.4896
- Rad51ap1 protein fold change (B16-F10 cells; 6 mM vs control, Table S1): 0.4291
- Rnf220 protein fold change (B16-F10 cells; 6 mM vs control, Table S1): 0.4969
- Sdc1 protein fold change (B16-F10 cells; 6 mM vs control, Table S1): 0.244
- Sdcbp protein fold change (B16-F10 cells; 6 mM vs control, Table S1): 0.4883
- Serac1 protein fold change (B16-F10 cells; 6 mM vs control, Table S1): 2.052
- Sfpq protein fold change (B16-F10 cells; 6 mM vs control, Table S1): 2.482
- Sgce protein fold change (B16-F10 cells; 6 mM vs control, Table S1): 0.4392
- Slc2a6 protein fold change (B16-F10 cells; 6 mM vs control, Table S1): 0.4306
- Slc4a2 protein fold change (B16-F10 cells; 6 mM vs control, Table S1): 0.48
- Slc7a1 protein fold change (B16-F10 cells; 6 mM vs control, Table S1): 0.4712
- Slc24a5 protein fold change (B16-F10 cells; 6 mM vs control, Table S1): 0.4286
- Slc35b2 protein fold change (B16-F10 cells; 6 mM vs control, Table S1): 0.3476
- Slc38a2 protein fold change (B16-F10 cells; 6 mM vs control, Table S1): 0.3733
- Slc45a2 protein fold change (B16-F10 cells; 6 mM vs control, Table S1): 0.451
- Sparcl1 protein fold change (B16-F10 cells; 6 mM vs control, Table S1): 0.4926
- Syt4 protein fold change (B16-F10 cells; 6 mM vs control, Table S1): 0.3106
- Tagln2 protein fold change (B16-F10 cells; 6 mM vs control, Table S1): 0.2815
- Tgoln1 protein fold change (B16-F10 cells; 6 mM vs control, Table S1): 0.479
- Tial1 protein fold change (B16-F10 cells; 6 mM vs control, Table S1): 2.492
- Tmed1 protein fold change (B16-F10 cells; 6 mM vs control, Table S1): 0.4801
- Tmem14c protein fold change (B16-F10 cells; 6 mM vs control, Table S1): 4.332
- Tmem59 protein fold change (B16-F10 cells; 6 mM vs control, Table S1): 0.233
- Tmem176a protein fold change (B16-F10 cells; 6 mM vs control, Table S1): 0.2277
- Tmem176b protein fold change (B16-F10 cells; 6 mM vs control, Table S1): 0.171
- Trib3 protein fold change (B16-F10 cells; 6 mM vs control, Table S1): 2.531
- Try10 protein fold change (B16-F10 cells; 6 mM vs control, Table S1): 0.2906
- Tspan3 protein fold change (B16-F10 cells; 6 mM vs control, Table S1): 0.3162
- Tspan10 protein fold change (B16-F10 cells; 6 mM vs control, Table S1): 0.3282
- Tubb4a protein fold change (B16-F10 cells; 6 mM vs control, Table S1): 3.655
- Tyrp1 protein fold change (B16-F10 cells; 6 mM vs control, Table S1): 0.3578
- U2af1l4 protein fold change (B16-F10 cells; 6 mM vs control, Table S1): 2.0208
- Ube2j1 protein fold change (B16-F10 cells; 6 mM vs control, Table S1): 0.3514
- Ubl3 protein fold change (B16-F10 cells; 6 mM vs control, Table S1): 0.2819
- Zbtb3 protein fold change (B16-F10 cells; 6 mM vs control, Table S1): 2.269
- env protein fold change (B16-F10 cells; 6 mM vs control, Table S1): 0.4886
- il6st protein fold change (B16-F10 cells; 6 mM vs control, Table S1): 0.4117
- p53 (Fragment) (A6YM30) protein fold change (B16-F10 cells; 6 mM vs control, Table S1): 3.222
- regulation of MMP9 or PPARG (B16-F10 cells; mouse B16-F10 cells, proteomic analysis): did not significantly downregulate
